# In article PMC6915869, “Immunosuppressive effects of a novel potassium channel toxin Ktx-Sp2 from Scorpiops Pocoki” (Cell & Bioscience, 2019):
# Bridge positions count the residues as written; N and C are the ends. Peptide text beside a SMILES is read from it.
# Test system: mNav1.7
# Experiment: Whole-cell patch-clamp, exogenous Nav1.7 in HEK293T cells
# Assay type: cell-based
# Conditions: 1 μM, +10 mV 100 ms pulse from -60 mV every 10 s
# Description: Mouse spinal columns were removed and placed in ice cold HBSS, then laminectomies were performed and bilateral DRG were dissected out. After removal of connective tissues, DRG were transferred to a 1 ml Ca^2+/Mg^2+-free HBSS containing 2 μl saturated NaHCO3, 0.35 mg L-cysteine and 20 U papain (Worthington, Lakewood, NJ, USA), and incubated at 37 °C for 10 min. The suspension of DRG was centrifuged, the supernatant was removed, 1 ml Ca^2+/Mg^2+-free HBSS containing 4 mg collagenase type II and 1.25 mg dispase type II (Worthington) was added and incubated at 37 °C for 10 min. After digestion, neurons were pelleted, suspended in neurobasal medium containing 2% B-27 supplement, 1% L-glutamine, 100 U/ml penicillin plus 100 μg/ml streptomycin, and 50 ng/ml nerve growth factor, plated on a 12 mm coverslip coated with poly-L-lysine (10 μg/ml) and cultured under a humidified atmosphere of 5% CO2/95% air at 37 °C for 18–24 h before use. Jurkat E6-1 T cells (ATCC TIB152) and HEK293T cells (ATCC ACS4500) were maintained in RPMI medium 1640 (Invitrogen, Carlsbad, CA, USA) and Dulbecco’s modified Eagle’s medium (DMEM) (Life Technologies,GrandIsland, NY, USA), supplemented with 10% fetal bovine serum (Life Technologies), 100 units/ml penicillin, 100 μg/ml streptomycin, respectively. Cells were cultured in a humidified incubator at 37 °C with 5% CO2. […]
smiles,measurement,value
"CSCC[C@@H]1NC(=O)[C@@H]2CSSC[C@H](NC(=O)[C@H](CCCCN)NC(=O)[C@H](C)NC(=O)CNC(=O)[C@H](Cc3c[nH]cn3)NC(=O)[C@H](CC(C)C)NC(=O)[C@@H]3CCCN3C(=O)[C@@H](N)CO)C(=O)N[C@@H](CO)C(=O)N[C@@H](CO)C(=O)N[C@@H](CO)C(=O)N[C@@H](CC(N)=O)C(=O)N[C@@H](CCC(N)=O)C(=O)N[C@H]3CSSC[C@H](NC(=O)[C@H](CCCNC(=N)N)NC(=O)CNC(=O)[C@H](CC(N)=O)NC1=O)C(=O)N[C@@H](CCCNC(=N)N)C(=O)N[C@H](C(=O)N[C@@H](Cc1ccc(O)cc1)C(=O)NCC(=O)O)CSSC[C@H](NC(=O)[C@@H]1CCCN1C(=O)[C@H](CCCNC(=N)N)NC(=O)[C@H]([C@@H](C)O)NC3=O)C(=O)N[C@@H](CCCNC(=N)N)C(=O)N[C@@H](Cc1ccc(O)cc1)C(=O)NCC(=O)NCC(=O)NCC(=O)N[C@@H]([C@@H](C)O)C(=O)N[C@@H](Cc1c[nH]cn1)C(=O)NCC(=O)N[C@@H](CCCCN)C(=O)N2 [Ktx-Sp2] (H-SPLHGAKCSSSNQCTRPCRYGGGTHGKCMNGRCRCYG-OH; disulfide 8-28, 14-33, 18-35 (inferred); N-terminus and C-terminus assumed)",effect on Nav1.7,almost had no effect
